Measurements: patent US4089893A, “2,2,2-Tris(hydroxymethyl)ethylphosponic acid and method for its preparation” (Borg-Warner Corporation, priority 1976, dated 1978)

Experiment: solubility
Assay type: physicochemical
Settings: syrup product of Example 2

O=P(O)(O)CC(CO)(CO)CO [Phosphonic Acid, 3-hydroxy-2,2-bis(hydroxymethyl)propylphosphonic acid]
solubility: soluble in water and highly polar organic solvents
